These results are taken from patent US12686668B2, “Leukotriene synthesis inhibitors” (Naegis Pharmaceuticals Inc., priority 2019, dated 2026).

For assay [1], the target named is T1, recombinant human leukotriene A4 hydrolase enzyme (Homo sapiens, UniProt P09960).
T1 construct: purchased Cayman Chemical 10007817
T1 sequence (P09960 1-611): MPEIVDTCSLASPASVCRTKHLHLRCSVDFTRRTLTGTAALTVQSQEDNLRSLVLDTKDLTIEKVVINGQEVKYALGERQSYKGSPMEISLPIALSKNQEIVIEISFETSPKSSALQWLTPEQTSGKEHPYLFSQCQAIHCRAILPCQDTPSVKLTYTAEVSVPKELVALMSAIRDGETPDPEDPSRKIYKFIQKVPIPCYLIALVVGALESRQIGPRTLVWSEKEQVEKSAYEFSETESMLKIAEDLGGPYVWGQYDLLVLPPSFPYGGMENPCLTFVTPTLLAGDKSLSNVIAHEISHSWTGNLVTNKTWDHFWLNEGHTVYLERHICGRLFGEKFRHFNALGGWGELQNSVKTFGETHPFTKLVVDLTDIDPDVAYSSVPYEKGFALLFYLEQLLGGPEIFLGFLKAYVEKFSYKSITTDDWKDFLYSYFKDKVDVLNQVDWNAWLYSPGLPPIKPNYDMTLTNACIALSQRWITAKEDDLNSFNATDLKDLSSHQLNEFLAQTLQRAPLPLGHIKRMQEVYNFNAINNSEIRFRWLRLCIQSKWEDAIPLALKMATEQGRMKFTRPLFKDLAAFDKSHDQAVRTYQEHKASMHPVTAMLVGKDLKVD
In words: Amino-peptidase assay, PGP. It is filed as biochemical. The settings on record: concentration not given. On the procedure:
A series of compound concentrations were pre-incubated with 50 ng of recombinant human leukotriene A4 hydrolase enzyme (Cayman Chemical, 10007817) in 50 L assay buffer (50 mM Tris-HCl, 100 mM KCl). The reaction was stimulated by adding 50 L 1 mM proline-glycine-proline (Bachem, H-7284) and incubated for 30 minutes at 37° C. The reaction was stopped with the addition of 150 μL of glacial acetic acid. The amount of free proline released from the peptide was detected through a reaction with ninhydrin. 150 μL of 25 mg/mL ninhydrin (BDH, B10132) in 60:40 acetic acid/water was added to each sample, and boiled for 30 minutes at 100° C. and once samples had cooled to room temperature, 350 μL of toluene was added to extract the ninhydrin reaction product. The amount of free proline was determined by comparing the absorbance at 520 nm to the L-proline (Sigma Aldrich, 81709) reference standard. Inhibition of free proline production was calculated based on control samples.

Assay [2] has as its system LTB4 production in porcine or human whole blood. In words: Whole blood HPLC assay, inhibition of LTB4 production. To be noted: 5 point curve, porcine or human whole blood (not specified). It is filed as cell-based. How it is done:
Porcine or human whole blood (1 mL) was pre-incubated with a series of concentrations of compound solubilized in DMSO for 30 minutes. Production of leukotrienes were stimulated with the addition of 20 μM calcium ionophore (A23187), diluted from a 4 mM DMSO stock in HBSS, and incubated at room temperature for 20 minutes. In porcine blood 20 μM arachidonic acid was added in addition to the calcium ionophore. The blood was centrifuged at 2,000 rpm for 15 minutes, and the plasma fraction removed for further processing. Plasma samples were diluted with 500 μL acidified water (HCl pH 3.0) and loaded onto C18 SEP-PAK columns (Canadian Lifesciences IS12000) for solid phase extraction. The leukotrienes were analyzed by HPLC using an ACE C18 column (4.5 mm×150 mm, 5 m) eluted with acetonitrile/methanol/water mixture with H3PO4, pH 3.5 (37:26:37) with a flow rate of 1.8 mL/min. The amount of LTB4 (Cayman Chemical, 20110) was calculated based on reference standards and the level of inhibition of LTB4 production induced by the test compounds was calculated relative to control samples. The results provided in Table 3 are IC50 values calculated based on a 5 point curve, where Compound No. refers to the compounds identified in Table 1.

For assay [3], the target named is T1, recombinant human leukotriene A4 hydrolase enzyme. In words: Amino-peptidase assay, alanine-4-nitroanalide. The format is biochemical. The settings on record: negative values = augmented peptidase activity, read-out: % Inhibition aminopeptidase-Alanine-4-nitroanalide activity of LTA4H (3 μM). How it is done:
A series of compound concentrations were pre-incubated in the absence of light with 0.5 μg of recombinant human leukotriene A4 hydrolase enzyme (Cayman Chemical 10007817) in 50 μL assay buffer (50 mM Tris-HCl, 100 mM KCl). The reaction was stimulated by adding 50 μL 6 mM alanine-4-nitroanilide (Sigma Aldrich A9325) in assay buffer. The amount of amino-peptidase activity was measured by determining the change in absorbance at 405 nm due to 4-nitroanaline production and comparing the rate of change to a reference standard (Sigma Aldrich 185310). Amino-peptidase activity was compared to control samples and the level of inhibition was calculated. Compounds that augment peptidase activity are represented by negative values.

The test system of assay [4] is LTC4 production in MC/9 cells. In words: MC/9 HPLC assay, inhibition of LTC4 production. The format is cell-based. The settings on record: Mus musculus; for inhibition at 3 µM: MC9, 3 μM, A23187 stimulated; for inhibition at 1 µM: MC9, Table 2 column 3, no concentration in head (1 μM according to b732), read-out: % Inhibition LTC4. How it is done: (§1) Cultured MC/9 cells (3×10^6 cells) in 1 mL HBSS were pre-incubated with a series of concentrations of compound solubilized in DMSO for 30 minutes. Production of leukotrienes were stimulated with the addition of 1 μM calcium ionophore (A23187), diluted from a 4 mM DMSO stock in HBSS, and incubated at room temperature for 20 minutes. The reaction was stopped with the addition of 500 μL of methanol containing 20 ng/mL prostaglandin B2 as an internal standard. Samples were collected and stored at −20° C. at least 2 hr or overnight before centrifuged at 13,000 rpm for 15 minutes and loaded onto C18 SEP-PAK columns (Canadian Lifesciences IS12000) for solid phase extraction. The leukotrienes were analyzed by HPLC using an ACE C18 column (4.5 mm×150 mm, 5 m) eluted with acetonitrile/methanol/water mixture with H3PO4, pH 3.5 (37:26:37) with a flow rate of 1.8 mL/min. The amount of LTB4 (Cayman Chemical, 20110) and LTC4 (Cayman Chemical, 20210) were calculated based on reference standards and the level of inhibition of LTB4 production induced by the test compounds was calculated relative to control samples. The results are provided in Table 2, where Compound No. refers to the compounds identified in Table 1.

Assay [5] relates to LTB4 production in MC/9 cells. In words: MC/9 HPLC assay, inhibition of LTB4 production. The format is cell-based. To be noted: Mus musculus, MC9, Table 2 column 4, no concentration in head (1 μM according to b732), read-out: % Inhibition LTB4. On the procedure: as §1

As for `CCC(=O)CCc1ccc(Oc2nc3ccccc3s2)c(OC(C)C)c1` [Compound 112, 1-[4-(1,3-benzothiazol-2-yloxy)-3-(iso-propyloxy)-phenyl]pentan-3-one], the “% Inhibition aminopeptidase-PGP activity of LTA4H” value in assay [1] is listed as <25%.

As a reminder, the IC50 is the concentration that gives 50% inhibition. A high value points to a need for much substance. A word on the inhibition: it is the change of the read-out against control, counted positive when it falls. `OC(c1ccc(Oc2nc3ccccc3s2)cc1)C(F)(F)F` (stereo not shown) [Compound 166, 1-[4-(1,3-benzothiazol-2-yloxy)phenyl]-2,2,2-trifluoroethanol]: in assay [2], the IC50 was in the range of 0.1 to 1 µM. Moreover, the results for the inhibition at 3 µM in assay [3] and in assay [4] were < 25% and 30 to 50%, respectively.

`CCC(CCc1ccc(Oc2nc3ccccc3s2)c(OC)c1)N1CCN(C)CC1` (stereo not shown) [Compound 188, 1-[4-(1,3-benzothiazol-2-yloxy)-3-methoxyphenyl]-3-(4-methylpiperazinyl-1yl)pentane]: the inhibition at 3 µM is < 25% in assay [3] and 10 to 30% in assay [4]. Besides, in assay [1], the “% Inhibition aminopeptidase-PGP activity of LTA4H” value is 25-50%.

Turning to `CCC(O)(CCc1ccc(Oc2nc3ccccc3s2)c(C(F)(F)F)c1)C(F)(F)F` (stereo not shown) [Compound 155, 1-[4-(1,3-benzothiazol-2-yloxy)-3-(trifluoromethyl)-phenyl]-3-(trifluoromethyl)-pentan-3-ol], the IC50 in assay [2] was > 10 µM. Further, the results for the inhibition at 1 µM in assay [4] and in assay [5] were < 10% and 10 to 30%, respectively.

`CCC(O)CCc1ccc(Oc2nc3ccccc3s2)c(OC2CCCC2)c1` (stereo not shown) [Compound 186, 1-[4-(1,3-benzothiazol-2-yloxy)-3-(cyclopentyloxy)-phenyl]pentan-3-ol]: the inhibition at 3 µM in assay [3] was > 75%; in assay [4] it was 70 to 90%. In addition, the “% Inhibition aminopeptidase-PGP activity of LTA4H” value in assay [1] is reported as >75%.

`CCC(O)(CCc1ccc(Oc2nc3ccccc3s2)c(OC(C)C)c1)C(F)(F)F` (stereo not shown) [Compound 115, 1-[4-(1,3-benzothiazol-2-yloxy)-3-(iso-propyloxy)phenyl]-3-(trifluoromethyl)pentan-3-ol]: the IC50 in assay [2] was > 10 µM. In assay [4], the inhibition at 3 µM was < 10% and the inhibition at 1 µM was < 10%. The inhibition at 1 µM in assay [5] is < 10%.

Take `OC(c1ccc(Oc2nc3c(F)cc(F)cc3s2)cc1)C(F)(F)F` (stereo not shown) [Compound 179, 1-{4-[(4,6-difluoro-1,3-benzothiazol-2-yl)oxy]phenyl}-2,2,2-trifluoroethanol]: the inhibition at 3 µM is > 75% in assay [3] and 10 to 30% in assay [4]. Also, the “% Inhibition aminopeptidase-PGP activity of LTA4H” value in assay [1] is >75%.

In turn, `CC(O)CCc1ccc(Oc2nc3ccccc3s2)cc1` (stereo not shown) [Compound 141, 4-[4-(1,3-benzothiazol-2-yloxy)phenyl]butan-2-ol] registered an IC50 in assay [2] of 1 to 10 µM. For the same compound, the inhibition at 1 µM was 10 to 30% in assay [4] and > 90% in assay [5].

`CCC(O)(CCc1ccc(Oc2nc3c(F)cc(F)cc3s2)c(OC)c1)C(F)(F)F` (stereo not shown) [Compound 107, 1-{4-[(4,6-difluoro-1,3-benzothiazol-2-yl)oxy]-3-methoxyphenyl}-3-(trifluoromethyl)pentan-3-ol]: the IC50 in assay [2] was > 10 µM. For the same compound, in assay [4], the inhibition at 3 µM was > 90% and the inhibition at 1 µM lay within 70 to 90%. The inhibition at 1 µM in assay [5] is > 90%.

Compound `CC(CCc1ccc(Oc2nc3ccccc3s2)cc1)N1CCCC1C(=O)O` (stereo not shown) [Compound 157, 1-{4-[4-(1,3-benzothiazol-2-yloxy)phenyl]butan-2-yl}pyrrolidine-2-carboxylic acid] came in with an IC50 in assay [2] of 1 to 10 µM. In addition, the inhibition at 1 µM was < 10% in assay [4] and 70 to 90% in assay [5].

For `COc1cc(C(O)C(F)(F)F)ccc1Oc1nc2ccccc2s1` (stereo not shown) [Compound 137, 1-[4-(1,3-benzothiazol-2-yloxy)-3-methoxyphenyl]-2,2,2-trifluoroethanol], the IC50 in assay [2] was > 10 µM. In assay [4], the inhibition at 3 µM is 50 to 70%. The inhibition at 1 µM in assay [5] was in the range of 10 to 30%.

In the case of `CC(CCc1ccc(Oc2nc3ccccc3s2)cc1)N1CCCC1` (stereo not shown) [Compound 156, 2-{4-[3-(pyrrolidin-1-yl)butyl]phenoxy}-1,3-benzothiazole], in assay [2], the IC50 is 0.1 to 1 µM. Moreover, the inhibition at 1 µM in assay [4] was < 10%; in assay [5], > 90%.

Take `CCC(C)(O)CCc1ccc(Oc2nc3ccccc3o2)cc1` (stereo not shown) [Compound 146, 1-[4-(1,3-benzoxazol-2-yloxy)phenyl]-3-methylpentan-3-ol]: the IC50 in assay [2] is 1 to 10 µM. In assay [3], the inhibition at 3 µM was < 25%. For the same compound, the inhibition at 1 µM was 10 to 30% in assay [4] and > 90% in assay [5].

For the compound `c1ccc2sc(Oc3ccc(CN4CCCC4)cc3)nc2c1` [Compound 164, 2-[4-(pyrrolidin-1-ylmethyl)phenoxy]-1,3-benzothiazole], the IC50 in assay [2] fell in the range of 0.1 to 1 µM. For the same compound, the inhibition at 3 µM was > 75% in assay [3] and < 10% in assay [4].

In the case of `OC(c1ccc(Oc2nc3ccccc3s2)c(Cl)c1)C(F)(F)F` (stereo not shown) [Compound 167, 1-[4-(1,3-benzothiazol-2-yloxy)-3-chlorophenyl]-2,2,2-trifluoroethanol], the half-maximal inhibitory concentration (IC50) in assay [2] is > 10 µM. Further, the inhibition at 3 µM in assay [3] is > 75%; in assay [4], 10 to 30%. For the same compound, the inhibition at 1 µM in assay [4] and in assay [5] was 10 to 30% throughout.

For `CCC(O)(CCc1ccc(Oc2nc3ccccc3s2)c(OCC2CC2)c1)C(F)(F)F` (stereo not shown) [Compound 117, 1-[4-(1,3-benzothiazol-2-yloxy)-3-(cyclopropyl-methoxy)-phenyl]-3-(trifluoromethyl)-pentan-3-ol], in assay [2], the IC50 was > 10 µM. Besides, the inhibition at 1 µM fell in the range of 30 to 50% in assay [4] and 70 to 90% in assay [5].

In assay [2], `CCNC(c1ccc(Oc2nc3ccccc3s2)c(OC)c1)C(F)(F)F` (stereo not shown) [Compound 138, 1-[4-(1,3-benzothiazol-2-yloxy)-3-methoxyphenyl]-N-ethyl-2,2,2-trifluoroethanamine] came in with an IC50 of 1 to 10 µM. Moreover, in assay [4], the inhibition at 3 µM lay in the range of 70 to 90% and the inhibition at 1 µM was 30 to 50%. Also, the inhibition at 1 µM in assay [5] was 10 to 30%.
